Converted amounts (≈) assume the structure as drawn. Where a name gives a salt, the structure may show the parent alone. Read-outs that look alike come from different tables or passages of the source. Blank lines part the entries; values can stand above or below the molecule they belong to.
How the values were obtained:
K562/MDR cells = assay: Effect on paclitaxel (multidrug) resistance of human MDR1 gene-transduced K562 cells; assay type: cell-based; settings: for EC50: Homo sapiens, read-out: Effect of overcoming resistance EC50
Description: After completion of culturing, the number of viable cells was counted by use of TetraColor ONE according to the manufacture's instruction manual.

A549/SN-38-4 cells = assay: Effect of overcoming SN-38 resistance of BCRP-expressing A549/SN-38-4 cells; assay type: cell-based, human; settings: concentration for 50% reduction of relative SN-38 resistance value (IC50 A549/SN-38-4 / IC50 A549), 48 hours culture with SN-38; for EC50: Homo sapiens, A549, 48 h, read-out: Effect of overcoming resistance EC50
Description: The human lung cancer A549 cells or the A549/SN-38-4 cells were suspended in a Ham's F-12 medium containing 10% FBS, 100 U/mL of penicillin, and 100 μg/mL of streptomycin (10% FBS/Ham's F-12), and the resultant suspension was inoculated into a 96-well microplate (2×10^3 cells/50 μL/well), followed by culturing at 5% CO2 and 37° C. overnight. […] After completion of culturing, the number of viable cells was counted by use of a viable cell counting reagent [TetraColor ONE (trademark), product of Seikagaku Corporation] according to the attached instruction manual. […] The greater the relative resistance value, the higher the level of acquired resistance.

HCT116/BCRP cells = assay: Effect of overcoming anticancer agent resistance in vivo, HCT116/BCRP tumour in nude mice; set-up: species or system human; settings: day 21; for Tumor weight Mean ± S.D.: BALB/c nude mice; for Tumor growth inhibition ratio IR: vs control group
Description: A solvent was solely administered to a control group. On the day 21 from the start of administration, a tumor was extirpated from each mice and weighed, and the tumor growth inhibition ratio IR (%) was derived from the following equation: Tumor growth inhibition ratio IR(%)=(1−average tumor weight of each administration group/average tumor weight of control group)×100.

[1] = concentration for 50% reduction of relative paclitaxel resistance value, K562/MDR vs K562, 72 hours
[2] = compound 12.5 mg/kg/day + CPT-11 10 mg/kg/day i.v. once a day for seven days
[3] = compound 25 mg/kg/day + CPT-11 10 mg/kg/day i.v. once a day for seven days

Molecule: COc1ccc(/C(C#N)=C/c2ccc(N)s2)cc1OC [Compound 3, (Z)-3-(5-amino-thiophen-2-yl)-2-(3,4-dimethoxy-phenyl)-acrylonitrile]
- EC50 (K562/MDR cells; [1]): > 5 µg/mL
- EC50 (A549/SN-38-4 cells): 0.032 µg/mL (≈ 0.112 µM)

Molecule: COc1ccc(/C(C#N)=C/c2ccc(N3CCCCC3)s2)cc1OC [Compound 4, (Z)-2-(3,4-dimethoxy-phenyl)-3-(5-piperidin-1-yl-thiophen-2-yl)-acrylonitrile]
- EC50 (K562/MDR cells; [1]): > 5 µg/mL
- Effect of overcoming resistance EC50 (A549/SN-38-4 cells): 0.012 µg/mL

Molecule: COc1ccc(/C(C#N)=C/c2ccc(N3CCOCC3)s2)cc1OC [Compound 5, (Z)-2-(3,4-dimethoxy-phenyl)-3-(5-morpholin-4-yl-thiophen-2-yl)-acrylonitrile]
- EC50 (K562/MDR cells; [1]): > 5 µg/mL
- EC50 (A549/SN-38-4 cells): 0.013 µg/mL (≈ 0.0365 µM)

Molecule: COc1ccc(/C(C#N)=C/c2ccc(N3CCN(C)CC3)s2)cc1OC [Compound 13, (Z)-2-(3,4-dimethoxy-phenyl)-3-[5-(4-methyl-piperazin-1-yl)-thiophen-2-yl]-acrylonitrile hydrochloride]
- Effect of overcoming resistance EC50 (A549/SN-38-4 cells; hydrochloride): 0.033 µg/mL
- Tumor weight Mean ± S.D. (HCT116/BCRP cells; [2]): 0.87 ± 0.18 g
- Tumor growth inhibition ratio IR (HCT116/BCRP cells; [2]): 31.7%
- Tumor weight Mean ± S.D. (HCT116/BCRP cells; [3]): 0.83 ± 0.08 g
- Tumor growth inhibition ratio IR (HCT116/BCRP cells; [3]): 35.0%

Molecule: COc1ccc(/C(C#N)=C/c2ccc(N3CCN(CCO)CC3)s2)cc1OC [Compound 14, (Z)-2-(3,4-dimethoxy-phenyl)-3-{5-[4-(2-hydroxy-ethyl)-piperazin-1-yl]-thiophen-2-yl}-acrylonitrile hydrochloride]
- EC50 (K562/MDR cells; K562, 72 h): > 5 µg/mL
- Effect of overcoming resistance EC50 (A549/SN-38-4 cells; hydrochloride): 0.087 µg/mL
- Tumor weight Mean ± S.D. (HCT116/BCRP cells; [2]): 0.79 ± 0.14 g
- Tumor growth inhibition ratio IR (HCT116/BCRP cells; [2]): 37.7%
- Tumor weight Mean ± S.D. (HCT116/BCRP cells; [3]): 0.70 ± 0.10 g
- Tumor growth inhibition ratio IR (HCT116/BCRP cells; [3]): 45.1%

Molecule: COc1ccc(/C(C#N)=C/c2ccc(N3CCC(OP(=O)([O-])[O-])CC3)s2)cc1OC.[Na+].[Na+] [Compound 17, mono-(1-{5-[(Z)-2-cyano-2-(3,4-dimethoxy-phenyl)-vinyl]-thiophen-2-yl}-piperidin-4-yl)phosphate sodium salt]
- EC50 (K562/MDR cells; [1]): > 5 µg/mL

Molecule: COc1ccc(/C(C#N)=C/c2ccc(N3CCC(OC(=O)CCC(=O)O)CC3)s2)cc1OC [Compound 18, mono-(1-{5-[(Z)-2-cyano-2-(3,4-dimethoxy-phenyl)-vinyl]-thiophen-2-yl}-piperidin-4-yl)succinate]
- Effect of overcoming resistance EC50 (K562/MDR cells; [1]): >5 µg/mL

Molecule: COc1ccc(/C(C#N)=C/c2ccc([N+](=O)[O-])o2)cc1OC [Compound 19, (Z)-2-(3,4-dimethoxy-phenyl)-3-(5-nitro-furan-2-yl)-acrylonitrile]
- EC50 (K562/MDR cells; [1]): > 5 µg/mL
- EC50 (A549/SN-38-4 cells): 0.014 µg/mL (≈ 0.0466 µM)

Molecule: COc1ccc(/C(C#N)=C/c2ccc(CO)o2)cc1OC [Compound 20, (Z)-2-(3,4-dimethoxy-phenyl)-3-(5-hydroxy-methyl-furan-2-yl)-acrylonitrile]
- Effect of overcoming resistance EC50 (K562/MDR cells; [1]): >5 µg/mL
- Effect of overcoming resistance EC50 (A549/SN-38-4 cells): 0.49 µg/mL

Molecule: COc1ccc(/C(C#N)=C/c2ccc(-c3cccc(N)c3)o2)cc1OC [Compound 23, (Z)-3-[5-(3-amino-phenyl)-furan-2-yl]-2-(3,4-dimethoxy-phenyl)-acrylonitrile hydrochloride]
- Effect of overcoming resistance EC50 (A549/SN-38-4 cells; hydrochloride): 0.058 µg/mL
- Tumor weight Mean ± S.D. (HCT116/BCRP cells; [2]): 1.21 ± 0.17 g
- Tumor growth inhibition ratio IR (HCT116/BCRP cells; [2]): 12.3%
- Tumor weight Mean ± S.D. (HCT116/BCRP cells; [3]): 0.71 ± 0.11 g
- Tumor growth inhibition ratio IR (HCT116/BCRP cells; [3]): 48.8%

Molecule: COc1ccc(/C(C#N)=C/c2ccc(N3CCOCC3)o2)cc1OC [Compound 25, (Z)-2-(3,4-dimethoxy-phenyl)-3-(5-morpholin-4-yl-furan-2-yl)-acrylonitrile]
- EC50 (K562/MDR cells; [1]): > 5 µg/mL
- EC50 (A549/SN-38-4 cells): 0.013 µg/mL (≈ 0.0382 µM)

Molecule: COc1ccc(/C(C#N)=C/c2ccc(N3CCC(O)CC3)o2)cc1OC [Compound 26, (Z)-2-(3,4-dimethoxy-phenyl)-3-[5-(4-hydroxy-piperidin-1-yl)-furan-2-yl]-acrylonitrile]
- EC50 (K562/MDR cells; [1]): > 5 µg/mL
- EC50 (A549/SN-38-4 cells): 0.075 µg/mL (≈ 0.212 µM)

Molecule: COc1ccc(/C(C#N)=C/c2ccc(N3CCN(C)CC3)o2)cc1OC [Compound 27, (Z)-2-(3,4-dimethoxy-phenyl)-3-[5-(4-methyl-piperazin-1-yl)-furan-2-yl]-acrylonitrile]
- EC50 (K562/MDR cells; [1]): > 5 µg/mL
- Effect of overcoming resistance EC50 (A549/SN-38-4 cells): 0.2 µg/mL

Molecule: COc1ccc(/C(C#N)=C/c2ccc(N3CCN(CCO)CC3)o2)cc1OC [Compound 28, (Z)-2-(3,4-dimethoxy-phenyl)-3-{5-[4-(2-hydroxy-ethyl)-piperazin-1-yl]-furan-2-yl}-acrylonitrile]
- EC50 (K562/MDR cells; [1]): > 5 µg/mL
- EC50 (A549/SN-38-4 cells): 0.12 µg/mL (≈ 0.313 µM)

Molecule: COc1ccc(/C(C#N)=C/c2ccncc2)cc1OC [Compound 30, (Z)-2-(3,4-dimethoxy-phenyl)-3-pyridin-4-yl-acrylonitrile]
- EC50 (K562/MDR cells; [1]): > 5 µg/mL
- EC50 (A549/SN-38-4 cells): 0.02 µg/mL (≈ 0.0751 µM)

Molecule: COc1ccc(/C(C#N)=C/c2ccncc2)cc1OC [Compound 31, (Z)-2-(3,4-dimethoxy-phenyl)-3-pyridin-4-yl-acrylonitrile hydrochloride]
- Effect of overcoming resistance EC50 (A549/SN-38-4 cells; hydrochloride): 0.037 µg/mL
- Tumor weight Mean ± S.D. (HCT116/BCRP cells; [2]): 0.74 ± 0.06 g
- Tumor growth inhibition ratio IR (HCT116/BCRP cells; [2]): 46.6%
- Tumor weight Mean ± S.D. (HCT116/BCRP cells; [3]): 0.67 ± 0.18 g
- Tumor growth inhibition ratio IR (HCT116/BCRP cells; [3]): 51.1%

Molecule: COc1ccc(/C(C#N)=C/c2cccnc2)cc1OC [Compound 34, (Z)-2-(3,4-dimethoxy-phenyl)-3-pyridin-3-yl-acrylonitrile]
- EC50 (K562/MDR cells; [1]): > 5 µg/mL
- Effect of overcoming resistance EC50 (A549/SN-38-4 cells): 0.058 µg/mL

Molecule: (E)-2-benzothiazol-1-yl-3-(3,4-dimethoxy-phenyl)-acrylonitrile [Compound 71]
- Effect of overcoming resistance EC50 (A549/SN-38-4 cells): 0.013 µg/mL

Molecule: (Z)-2-(3,4-dimethoxy-phenyl)-3-pyridin-4-yl-acrylonitrile N-oxide [Compound 33]
- Effect of overcoming resistance EC50 (K562/MDR cells; [1]): >5 µg/mL
- Effect of overcoming resistance EC50 (A549/SN-38-4 cells): 0.52 µg/mL

Further lines, with some results ahead:

- EC50 (K562/MDR cells; [1]): > 5 µg/mL
- EC50 (A549/SN-38-4 cells): 0.06 µg/mL (≈ 0.225 µM)
Molecule: COc1ccc(/C(C#N)=C/c2ccccn2)cc1OC [Compound 38, (Z)-2-(3,4-dimethoxy-phenyl)-3-pyridin-2-yl-acrylonitrile]

- EC50 (K562/MDR cells; [1]): > 5 µg/mL
- EC50 (A549/SN-38-4 cells): 0.075 µg/mL
Molecule: COc1ccc(/C(C#N)=C/c2ccc[nH]2)cc1OC.Cl [Compound 40, (Z)-2-(3,4-dimethoxy-phenyl)-3-(1H-pyrrol-2-yl)-acrylonitrile hydrochloride]

- EC50 (K562/MDR cells; [1]): > 5 µg/mL
- EC50 (A549/SN-38-4 cells): 0.22 µg/mL (≈ 0.562 µM)
Molecule: COc1ccc(/C(C#N)=C/c2cnc(SC)n2Cc2ccccc2)cc1OC [Compound 42, (Z)-3-(3-benzyl-2-methylsulfanyl-3H-imidazol-4-yl)-2-(3,4-dimethoxy-phenyl)-acrylonitrile]

- EC50 (K562/MDR cells; [1]): > 5 µg/mL
- EC50 (A549/SN-38-4 cells): 0.16 µg/mL (≈ 0.441 µM)
Molecule: COc1ccc(/C(C#N)=C/c2sc(-c3ccccc3)nc2C)cc1OC [Compound 43, (Z)-2-(3,4-dimethoxy-phenyl)-3-(4-methyl-2-phenyl-thiazol-5-yl)-acrylonitrile]

- EC50 (K562/MDR cells; [1]): > 5 µg/mL
- EC50 (A549/SN-38-4 cells): 0.056 µg/mL (≈ 0.21 µM)
Molecule: COc1ccc(/C=C(\C#N)c2cccnc2)cc1OC [Compound 44, (Z)-3-(3,4-dimethoxy-phenyl)-2-pyridin-3-yl-acrylonitrile]

- EC50 (K562/MDR cells; [1]): > 5 µg/mL
- EC50 (A549/SN-38-4 cells): 0.05 µg/mL (≈ 0.188 µM)
Molecule: COc1ccc(/C=C(\C#N)c2ccccn2)cc1OC [Compound 45, (Z)-3-(3,4-dimethoxy-phenyl)-2-pyridin-2-yl-acrylonitrile]

- Effect of overcoming resistance EC50 (A549/SN-38-4 cells; hydrochloride): 0.1 µg/mL
Molecule: COc1ccc(/C=C(\C#N)c2cccnc2)cc1OC [Compound 46, (Z)-3-(3,4-dimethoxy-phenyl)-2-pyridin-3-yl-acrylonitrile hydrochloride]
- Tumor weight Mean ± S.D. (HCT116/BCRP cells; [2]): 0.79 ± 0.21 g
- Tumor growth inhibition ratio IR (HCT116/BCRP cells; [2]): 37.7%
- Tumor weight Mean ± S.D. (HCT116/BCRP cells; [3]): 0.67 ± 0.07 g
- Tumor growth inhibition ratio IR (HCT116/BCRP cells; [3]): 47.7%

- Effect of overcoming resistance EC50 (K562/MDR cells; [1]): >5 µg/mL
Molecule: COc1ccc(/C(C#N)=C/c2ccc(N3CCC(OP(=O)(O)O)CC3)o2)cc1OC [Compound 52, mono-(1-{5-[(Z)-2-cyano-2-(3,4-dimethoxy-phenyl)-vinyl]-furan-2-yl}-piperidin-4-yl)phosphate]

- EC50 (K562/MDR cells; [1]): > 5 µg/mL
Molecule: COc1ccc(/C(C#N)=C/c2ccc(N3CCC(OP(=O)([O-])[O-])CC3)o2)cc1OC.[Na+].[Na+] [Compound 53, mono-(1-{5-[(Z)-2-cyano-2-(3,4-dimethoxy-phenyl)-vinyl]-furan-2-yl}-piperidin-4-yl)phosphate sodium salt]

- EC50 (K562/MDR cells; [1]): > 5 µg/mL
Molecule: COc1ccc(/C=C(\C#N)c2cccs2)cc1OC [Compound 55, (E)-3-(3,4-dimethoxy-phenyl)-2-thiophen-2-yl-acrylonitrile]

- EC50 (K562/MDR cells; [1]): > 5 µg/mL
- EC50 (A549/SN-38-4 cells): 0.037 µg/mL (≈ 0.136 µM)
Molecule: COc1ccc(/C=C(\C#N)c2ccsc2)cc1OC [Compound 56, (Z)-3-(3,4-dimethoxy-phenyl)-2-thiophen-3-yl-acrylonitrile]

Source: patent publication US8697742B2, “BCRP/ABCG2 inhibitor” (Kabushiki Kaisha Yakult Honsha, priority 2005, dated 2014)
